Test results taken from PubChem BioAssay (NCI).
“And” between values parts separate entries of the source, which are not always exact repeats. Identical values can stand only once.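 96-well plates; 48 h exposure; 5 concentrations. Endpoints by linear interpolation between flanking doses. Not reached: highest tested concentration assigned. Abbreviation: GI50, concentration required for 50% inhibition of growth. At the TGI there is no net growth.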

Tests used:
Experiment in all cases: NCI-60 cell line screen, 48 h
RPMI-8226 leukemia = system: RPMI-8226 leukemia
HL-60(TB) leukemia = system: HL-60(TB) leukemia
NCI-H460 lung = system: NCI-H460 lung
A549 NSCLC = system: A549 NSCLC
HCT-15 colon = system: HCT-15 colon
TK-10 renal = system: TK-10 renal
OVCAR-4 ovarian = system: OVCAR-4 ovarian
LOX IMVI melanoma = system: LOX IMVI melanoma
786-0 renal = system: 786-0 renal
A498 renal = system: A498 renal

Row | Compound | GI50 (RPMI-8226 leukemia) | TGI (RPMI-8226 leukemia) | TGI (HL-60(TB) leukemia) | TGI (NCI-H460 lung) | GI50 (A549 NSCLC) | TGI (A549 NSCLC) | TGI (HCT-15 colon) | TGI (TK-10 renal) | TGI (OVCAR-4 ovarian) | GI50 (LOX IMVI melanoma) | TGI (LOX IMVI melanoma) | TGI (786-0 renal) | TGI (A498 renal) | GI50 (HL-60(TB) leukemia) | GI50 (NCI-H460 lung) | GI50 (HCT-15 colon) | GI50 (TK-10 renal) | GI50 (OVCAR-4 ovarian) | GI50 (786-0 renal) | GI50 (A498 renal)
1 | CCCCCCCCCCC(O)C1CCC(C(O)CCC(O)C2CCC(CCCCCCC[C@H](O)CC3=C[C@@H](C)OC3=O)O2)O1 (stereo not given in full) | 6360 nM | > 100 µM | 13.4 µM | > 100 µM | 8660 nM | > 100 µM | > 100 µM | > 100 µM | > 100 µM | 2240 nM | > 100 µM | 53.9 µM | > 82 µM | – | – | – | – | – | – | –
2 | O=C(N/N=C/c1ccccc1Cl)c1ccccc1Nc1ccnc(C(F)(F)F)c1 | 470 nM | 2.74 µM | – | 2.38 µM | 3010 nM | 8.91 µM | 3.95 µM | 3.87 µM | > 100 µM | 1330 nM | 5.21 µM | 3.53 µM | 5.99 µM | 1710 nM | 768 nM | 430 nM | 0.673 µM | 1320 nM | 616 nM | 1760 nM
3 | O=CN1N=C(c2ccc(Cl)cc2)CC1c1cccc(Nc2ccnc3cc(Cl)ccc23)c1 (stereo not given) | 611 nM | 4.19 µM | 4.49 µM | 11.9 µM | 2030 nM | 94.2 µM | > 100 µM | 21.1 µM | 16.7 µM | 1290 nM | 3.42 µM | 14.5 µM | 8.97 µM | 1270 nM | 1860 nM | 1360 nM | 2.34 µM | 638 nM | 2960 nM | 977 nM
4 | CCN=c1cc2sc3cc(NCC)c(C)cc3nc-2cc1C | 233 nM | 3.45 µM | 8.48 µM | 5 µM | 1840 nM | 10.9 µM | 9.51 µM | 6.94 µM | 2.31 µM | 746 nM | 4.28 µM | 15.5 µM | 53.4 µM | 1660 nM | 821 nM | 489 nM | 2.04 µM | 237 nM | 3100 nM | 14000 nM
5 | COc1ccc2c(c1)OC1=C(C(=O)OC1)C2c1cc(OC)c(OC)c(OC)c1 (stereo not given) | 514 nM | > 100 µM | 0.673 µM | > 81.2 µM | 610 nM | > 100 µM | > 100 µM | > 100 µM | > 100 µM | 608 nM | > 100 µM | > 100 µM | 15.1 µM | 256 nM | 359 nM | 499 nM | > 67.7 µM | 1420 nM | 632 nM | 281 nM
6 | CCc1nc(N)nc(C(=O)NCCNC(=O)c2nc(N)nc(CC)c2C)c1C | – | > 100 µM | > 100 µM | > 100 µM | – | > 100 µM | > 100 µM | > 100 µM | > 100 µM | – | > 100 µM | > 100 µM | > 100 µM | – | – | – | – | – | – | –
7 | Nc1cc(-c2cccc(OC(F)(F)F)c2)nc2ccc(N3CCCC3)cc12 | 47.9 nM and 40.4 nM and 44.7 nM | 7.32 µM and > 33.2 µM and > 64.9 µM | 0.0888 µM and 0.0712 µM and 0.32 µM | 12.5 µM and > 100 µM | 137 nM and 85.2 nM and 83.6 nM | 18.6 µM and > 100 µM | 11.5 µM and > 100 µM | 34.6 µM and > 100 µM | > 100 µM | 52.8 nM and 48.5 nM and 46 nM | – | 12.3 µM and > 100 µM and > 47.8 µM | 0.193 µM and 0.0936 µM and 0.257 µM | 30.3 nM and 24.9 nM and 24.8 nM | 35.4 nM and 35.9 nM | 33.8 nM and 34.9 nM and 31.2 nM | 9.57 µM and 13 µM and > 23.5 µM | 519 nM and 1160 nM and 1590 nM | 65.6 nM and 78 nM and 57.3 nM | 27.1 nM and 23 nM and 26.6 nM
8 | Cc1cc(-c2nnc(N)nc2-c2ccc(F)cc2)cc(Cl)n1 | 37300 nM | > 100 µM | > 100 µM | > 100 µM | > 100000 nM | > 100 µM | > 100 µM | > 100 µM | > 100 µM | > 100000 nM | > 100 µM | > 100 µM | > 100 µM | 33600 nM | > 100000 nM | > 100000 nM | 42.6 µM | 97300 nM | > 100000 nM | 49000 nM
9 | COc1ccc(-c2nc3ncccn3c2/C=C/C(=O)c2cc(OC)c(OC)c(OC)c2)cc1 | 2210 nM | > 100 µM | > 100 µM | 2.74 µM | 2710 nM | > 100 µM | 3.94 µM | 10.4 µM | 14.3 µM | 1460 nM | 3 µM | 5.51 µM | 6.28 µM | 2520 nM | 1430 nM | 1380 nM | 2.88 µM | 2910 nM | 1840 nM | 2130 nM
10 | O=[N+]([O-])c1ccc(N=Nc2c(O)ccc3ccccc23)cc1 | – | > 100 µM | > 100 µM | > 100 µM | 28200 nM and > 100000 nM | > 100 µM | > 100 µM | > 100 µM | 65.7 µM and > 100 µM | – | > 100 µM | > 100 µM | > 100 µM | 38400 nM and > 100000 nM | – | – | 28 µM and > 100 µM | 24300 nM and > 100000 nM | – | –
11 | O=C(Nc1ccc(F)cc1)C(=O)C(C1OC(=O)c2ccccc21)[N+](=O)[O-] (stereo not given) | – | > 100 µM | > 100 µM | > 100 µM | – | > 100 µM | > 100 µM | > 100 µM | > 100 µM | – | > 100 µM | > 100 µM | > 100 µM | – | – | – | – | – | – | –
12 | C=CCC(C(=O)O)c1ccccc1 (stereo not given) | – | > 100 µM | > 100 µM | > 100 µM | – | > 100 µM | > 100 µM | > 100 µM | > 100 µM | – | > 100 µM | > 100 µM | > 100 µM | – | – | – | – | – | – | –
13 | COC1OC(C)C(O)CC1OS(=O)(=O)c1ccc(C)cc1 (stereo not given) | – | > 100 µM | > 100 µM | > 100 µM | – | > 100 µM | > 100 µM | > 100 µM | > 100 µM | – | > 100 µM | > 100 µM | > 100 µM | – | – | – | – | – | – | –
14 | CC(=O)N/C(=C\c1cccc([N+](=O)[O-])c1)c1nc2c3c(ccc2[nH]1)C(=O)c1ccccc1C3=O | – | > 100 µM | 59.8 µM | > 100 µM | – | > 100 µM | > 100 µM | > 100 µM | > 100 µM | – | > 100 µM | > 100 µM | > 100 µM | – | – | – | – | – | – | –
15 | COC(=O)C12C3C4C5C3(C#N)C1C5(C(=O)OC)C42C(=O)N(C(C)C)C(C)C (stereo not given) | – | > 69.3 µM | > 60 µM | > 100 µM | – | > 100 µM | > 60.4 µM | > 100 µM | > 100 µM | – | > 100 µM | > 100 µM | > 100 µM | – | – | – | – | – | – | –
